The subject of this experiment is 5-HT levels in ventral hippocampus. As to the kind of experiment: Microdialysis of brain serotonin (5-HT) levels in ventral hippocampus of rats. It counts as in vivo, rat. The note with it: loxapine alone; male Wistar rats. Here is the method: Male albino rats of a Wistar-derived strain (285-320 g; Harlan, Zeist, The Netherlands) were used for the experiments. Upon surgery, rats were housed individually in plastic cages (35×35×40 cm), and had free access to food and water. Animals were kept on a 12 h light schedule (light on 7:00 a.m.). The experiments are concordant with the declarations of Helsinki and were approved by the animal care committee of the faculty of mathematics and natural science of the University of Groningen.
Preceding surgery rats were anaesthetised using isoflurane (O2/N2O; 300/300 ml/min). Lidocaine-HCl, 10% (m/v) was used for local anaesthesia.
Rats were allowed to recover for at least 24 h. […]
Twenty-μl microdialysate samples were injected via an autoinjector (CMA/200 refrigerated microsampler, CMA, Sweden) onto a 100×2.0 mm C18 Hypersil 3 μm column (Bester, Amstelveen, the Netherlands) and separated with a mobile phase consisting of 5 g/L di-ammoniumsulfate, 500 mg/L EDTA, 50 mg/L heptane sulphonic acid, 4% methanol v/v, and 30 μl/L of triethylamine, pH 4.65 at a flow of 0.4 ml/min (Shimadzu LC-10 AD). 5-HT was detected amperometrically at a glassy carbon electrode at 500 mV vs Ag/AgCl (Antec Leyden, Leiden, The Netherlands). […]

This is an account of results in patent publication US20070042014A1, “Combination of a serotonin reuptake inhibitor and loxapine” (H. Lundbeck A/S, priority 2003, published 2007).

Regarding `CN1CCN(C2=Nc3ccccc3Oc3ccc(Cl)cc32)CC1` [loxapine], the “effect on 5-HT levels in ventral hippocampus (microdialysis, % of control level)” value is listed as “no significant effect”.
